Test results reported in article PMC10571743, “Molecular Cloning, Tissue Distribution, and Pharmacological Characterization of GPR84 in Grass Carp (Ctenopharyngodon Idella)” (Animals : an Open Access Journal from MDPI, 2023).

Columns and labels:
ciGPR84 [1] = biological target: T1, ciGPR84 (Ctenopharyngodon idella, UniProt A0A8K1PH93); test: pGL4.33 (SRE) luciferase reporter assay, activation of ERK signaling in HEK293T cells transfected with ciGPR84; assay type: cell-based, grass carp (Ctenopharyngodon idella); settings: HEK293T co-transfected with ciGPR84 and pGL4.33 (SRE-luciferase), 6 h treatment; for EC50: read-out: EC50 for activation of ERK signaling through ciGPR84
T1 sequence (A0A8K1PH93 entry or part of it): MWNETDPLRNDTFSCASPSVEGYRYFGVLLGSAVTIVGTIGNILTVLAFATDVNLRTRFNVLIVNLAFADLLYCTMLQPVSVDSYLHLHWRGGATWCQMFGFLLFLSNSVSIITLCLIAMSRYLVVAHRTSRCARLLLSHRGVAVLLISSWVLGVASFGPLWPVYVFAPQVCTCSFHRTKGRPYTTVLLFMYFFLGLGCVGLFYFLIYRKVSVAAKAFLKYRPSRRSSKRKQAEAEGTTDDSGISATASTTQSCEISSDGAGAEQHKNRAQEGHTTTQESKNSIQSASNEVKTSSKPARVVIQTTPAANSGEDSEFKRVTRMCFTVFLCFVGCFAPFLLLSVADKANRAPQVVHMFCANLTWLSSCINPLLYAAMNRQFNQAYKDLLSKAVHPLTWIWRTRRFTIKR
Method: (§1) Human embryonic kidney cells HEK293T obtained from Beyotime Biotechnology (Shanghai, China) were cultured with Dulbecco’s Modified Eagle Medium (DMEM) containing a 10% fetal bovine serum in an incubator (37 °C and 5% CO2 humidified atmosphere). The cells were plated into 24-well plates and cultured for 24 h before assays. The Countess 3 cell counter (Invitrogen, Waltham, MA, USA) was used for cell counting.
(§2) The functionality of ciGPR84 was assessed using our established method. Specifically, the coding sequence (CDS) of ciGPR84 was subcloned into the pcDNA3.1 (+) vector (Invitrogen, Carlsbad, CA, USA), resulting in the construction of pcDNA3.1-ciGPR84 (pciGPR84). HEK293T cells were co-transfected with pciGPR84 (or pcDNA3.1 empty vector), two luciferase reporter vectors (pGL4.29 and pGL4.33) containing a cAMP response element (CRE) and serum response element (SRE), respectively, and pEGFP-N1 (as an internal control for transfection normalization) in a mixture with polyethyleneimine (PEI) transfection reagent (Fusheng Biotechnology, Shanghai, China). The cells were then incubated in the original medium for 24 h, transferred to a 48-well plate, and grown for an additional 24 h to reach a cell density of 2 × 10^5 cells per well. […] It is important to note that due to the anticipated inhibitory effect of MCFA on the intracellular cAMP, 5 μM forskolin was added to all wells transfected with pGL4.29 to pre-activate the cellular adenylyl cyclase.
(§3) After the treatment, cells were lysed with 1 × passive lysis buffer (Beyotime Biotechnology, Shanghai, China), and a luciferase substrate was added to initiate a glow-generating reaction. The luminescence signals were measured using a Tecan F200 (Tecan, Männedorf, Switzerland) microplate reader to determine the relative luciferase activity in each well. Three independent experiments were performed for each agonist concentration (n = 3), and the data were presented as a mean ± SEM.
(§4) A data analysis was performed using GraphPad Prism 7 software (GraphPad Software, San Diego, CA, USA).

ciGPR84 [2] = biological target: T1, ciGPR84; test: pGL4.29 (CRE) luciferase reporter assay, inhibition of forskolin-induced cAMP signaling in HEK293T cells transfected with ciGPR84; assay type: cell-based, grass carp (Ctenopharyngodon idella); settings: HEK293T co-transfected with pciGPR84 and pGL4.29, 5 μM forskolin, 6 h treatment; for IC50: read-out: IC50 (half-maximal inhibitory concentration) on cAMP through ciGPR84
Method: as §1, §2, §3, §4

mouse GPR84 = tested on: mouse GPR84; parameters: method as in PMID 16966319; settings: cited from earlier work

## c1ccc2c(Cc3c[nH]c4ccccc34)c[nH]c2c1 [DIM, diindolylmethane]
ciGPR84 [1]; DIM 10^−8 to 10^−3
  activation of ERK signaling through ciGPR84: did not activate the ERK signaling
ciGPR84 [2]; DIM 10^−8 to 10^−3
  inhibition of cAMP generation through ciGPR84: did not lead to the inhibition of cAMP generation

## CCCCCCCCCC(=O)O [capric acid]
Mouse GPR84
  EC50: 4 µM

## CCCCCCCCCCCC(=O)O [lauric acid]
Mouse GPR84
  EC50: 9 µM
ciGPR84 [1]
  EC50: 4.25 mM
ciGPR84 [2]
  IC50: 301 µM

## CCCCCCCCC(=O)O [nonanoic acid]
Mouse GPR84
  EC50: 52 µM

## CCCCCCCCCCC(=O)O [undecanoic acid]
ciGPR84 [1]
  EC50: 13.8 mM
ciGPR84 [2]
  IC50: 1490 µM
